Results: PMC8661809 (Protein Science : A Publication of the Protein Society, 2021)

Target: CTD of SARS‐CoV‐2 N protein (Severe acute respiratory syndrome coronavirus 2, UniProt P0DTC9)
Experiment: biochemical
Type: binding

Nc1ncnc2c1ncn2[C@@H]1O[C@H](COP(=O)(O)OP(=O)(O)OP(=O)(O)O)[C@@H](O)[C@H]1O [ATP]
Kd: 1490 ± 280 µM
